Measurements taken from US20230095980A1, “Sodium 2-[(4S)-8-fluoro-2-[4-(3-methoxyphenyl)piperazin-1-yl]-3-[2-methoxy-5-(trifluoromethyl)phenyl]-4H-quinazolin-4-yl]acetate and pharmaceutical compositions thereof” (AIC246 AG & Co. KG, priority 2020, published 2023).

Experiments:
[1] = intravenous formulation in neonates; cited from earlier work
[2] = Excipient-free formulation: reconstitution with water for injection and dilution in infusion bags; type: physicochemical
Method: 0.3164 g of letermovir sodium trihydrate salt was directly weighed into a washed, sterilized and dried 20R glass vial. […] Six vials were prepared accordingly. The vials were stoppered and crimp capped.
14 ml of water for injection were added to each 20R vial containing 280 mg of Letermovir free base resulting in concentration of 20 mg/ml. Water for injection was added after removal of the flip-off disk from the vial by using a 20-ml disposable syringe plus a 20G needle of 40 mm length.
The content of the vial was carefully homogenized by gentle manual rotation. In parallel, 2 empty infusion bags were filled with 288 ml of each parenteral admixture diluents (Ringer's lactate, 0.9% saline solution and 5% dextrose solution, respectively) by using a 50-ml syringe and a Mini-Spike. 12 ml of the content of the vial was withdrawn by using a 20-ml disposable syringe plus a 20G needle of 40 mm length. The total volume of 12 ml was directly injected into the diluent containing infusion bag. After the injection, the content of the bag was carefully homogenized by gentle manual rotation. Two independent preparations of each diluent were used, i.e., in total 6 infusion bags were prepared. Following, the prepared infusion bags were put on storage at room temperature (protected from light) and another sample was analyzed after 24 hours (T24 h).

Compound | PDE (permissible daily exposure) [1] | pH ([2]; other two diluents (0.9% saline solution, 5% dextrose solution)) | precipitation based on visual inspection ([2]; over 24 hours at room temperature, Ringer's lactate, 0.9% saline, 5% dextrose) | pH ([2]; solution reconstituted with Ringer's lactate, no pH adjustment)
OC[C@H]1O[C@@H](O[C@H]2[C@H](O)[C@@H](O)C(O)O[C@@H]2CO)[C@H](O)[C@@H](O)[C@H]1O (stereo partly drawn) [Lactose] | 5.7 mg/day | – | – | –
OC[C@@H](O)[C@@H](O)[C@H](O)[C@H](O)CO [Mannitol] | 75 mg/day | – | – | –
OC[C@H]1O[C@H](O[C@H]2O[C@H](CO)[C@@H](O)[C@H](O)[C@H]2O)[C@H](O)[C@@H](O)[C@@H]1O [Trehalose] | 25.8 mg/day | – | – | –
COc1cccc(N2CCN(C3=Nc4c(F)cccc4[C@H](CC(=O)[O-])N3c3cc(C(F)(F)F)ccc3OC)CC2)c1.[Na+] [letermovir sodium trihydrate salt, Sodium 2-[(4S)-8-fluoro-2-[4-(3-methoxyphenyl)piperazin-1-yl]-3-[2-methoxy-5-(trifluoromethyl)phenyl]-4H-quinazolin-4-yl]acetate] | – | 8.0 | None of the reconstituted formulations precipitated | 7.8
